This note sets out measurements from patent US9988268B2, “Preparation of 2,6- and 2,7-disubstituted anthraquinone derivatives” (BASF SE, priority 2014, dated 2018).

The nature of this data set: Determination of the solubility of anthraquinone derivatives in xylene/diisobutylcarbinol. It is filed as physicochemical. Particulars: for solubility: mixture of xylene (50 volume-%) and diisobutylcarbinol (50 volume-%), 22° C.; for Solubility (in words): xylene/diisobutylcarbinol solvent system, comparison of anthraquinone derivatives. The method, then:
0.06 ml of a mixture of xylene (50 volume-%) and diisobutylcarbinol (50 volume-%) were added to 1 g of the respective anthraquinone derivative at 22° C. every 60 seconds until the anthraquinone derivative was dissolved completely.

In brackets after ≈: the same amount, converted by molar mass. Read-outs that look alike come from different tables or passages of the source.

A word on the solubility: it is the dissolved amount per volume that the medium holds. As to `CCc1ccc2c(c1)C(=O)c1ccccc1C2=O` [2-ethylanthraquinone], the “Solubility (in words)” value is “poorly soluble”. Further, the solubility (xylene/diisobutylcarbinol mixture (50:50 by volume), organic solvent or mixture, thermodynamic from solid, read-out: Solubility) turned out to be 270 mM (≈ 63.8 mg/mL).

`Cc1cc2c(cc1C)C(=O)c1cc(C)c(C)cc1C2=O` [Comparative Example 6, 2,3,6,7-tetramethylanthracene-9,10-dione]: the solubility entry is on record as “insoluble” and the “Solubility (in words)” value is reported as “insoluble”.
